{"source": "patent US9888679B2", "about": "“Protection of progenitor cells and regulation of their differentiation” (Proteobioactives Pty Ltd, priority 2007, dated 2018)", "key": {"[1]": {"test_system": "murine ATDC5 progenitor cells", "experiment": "Viability after freeze-thawing cycle, MTT assay", "format": "cell-based", "protocol": "FIG. 2. Bar graph showing the viability of different numbers of murine ATDC5 progenitor cells suspended in cryogenic media containing 7.5% DMSO and various concentrations of Pentosan Polysulfate (PPS) after being subjected to freeze-thawing cycle. Cell viability was determined using the mitochondrial dehydrogenase MTT assay.\nMurine Progenitor cells (cell lines C3H10T1/2 or ATDC5) purchased from RIKEN Cell Bank (Tsukuba, Japan) or human immunoselected Stro-1+ progenitor cells (Mesoblast Ltd, Melbourne, Australia) were seeded at a various cell densities over the range of 1.68×10^5-1.0×10^6 cells into 2 mL screw-capped centrifuge tubes containing in DMEM+10% FBS. In separate tubes a stock solution containing 2× the required concentrations of PPS dissolved in DMEM+20% FBS and 15% DMSO were prepared. These stock solutions were added to the cell cultures such that the final concentration of PPS was half that of the stock concentration and of FBS was 10% and DMSO was […]. […] All concentrations of PPS used were examined in triplicated. Cells and the cryopreservation solutions containing the PPS were mixed gently for 5 mins and stored in liquid nitrogen. After 3 days, the tubes were removed from liquid nitrogen and thawed in 37° C. water bath and allowed to stand at ambient temperature for about 15 min. The cells were centrifuged down at 200 g for 5 min and the supernatant discarded. The cells were washed with 900 ul of DMEM without phenol red, and then centrifuged down at 200 g for 5 min. The cells were resuspended in 500 ul of 1 mg/ml MTT solution in DMEM and incubated in 37° C. for 3 hours then centrifuged at 6000 g for 5 min. 300 ul of DMSO was added to each tube to dissolved the dye crystals. 90 ul×3 from each tube were transferred to a 96-well plate and the absorbance at 540 nm determined.\nCell viability was determined using the MTT assay."}, "[2]": {"test_system": "Primary human progenitor cells", "experiment": "Differentiation in osteogenic media: mineralisation assay", "format": "cell-based", "settings": "for differentiation into osteoblasts/osteocytes: osteogenic media, particularly at 1 and 10 micrograms PPS/mL, FIG. 7", "protocol": "FIG. 7. The Effects of Pentosan Polysulfate (PPS) on Human progenitor cell Differentiation: Mineralisation Assay. Primary human progenitor cells were cultured in 96 wells plates in non-osteoinductive growth media (media control) or in osteoinductive conditions (alphaMEM supplemented with 10% FCS, 100 microM L-ascorbate-2-phosphate, dexamethasone 10^−7 M and 3 mM inorganic phosphate) in the presence of PPS at the indicated concentrations. On day 28, the concentration of acid solubilisd calcium per well was determined using the Cresolphthalein Complexone method. (A) The concentration of acid solubilised calcium per microg of DNA/well was determined following the assessment of the total amount of DNA per well using a fluorogenic DNA stain (Hoeshst 33258). […] (B) Phase-contrast photomicrographs of mineralised cultures at ×20 magnification.\nThe conditions necessary for the induction of human progenitor cells to develop mineralised bone matrix in vitro have been previously described (Gronthos S, A C Zannettino, S J Hay, S Shi, S E Graves, A Kortesidis and P J Simmons. (2003). Molecular and cellular characterisation of highly purified stromal stem cells derived from human bone marrow. J Cell Sci 116:1827-1835). The osteoinductive media consists of alpha-MEM media supplemented with 2% (v/v) FCS, 1.8 mM KH2PO4, 10-7 dexamethasone sodium phosphate, 50 IU/ml penicillin, 50 μg/mL streptomycin, 1 mM Sodium Pyruvate, 100 μM L-Ascorbic acid 2-phosphate, 2 mM L-glutamine and 10 mM HEPES buffer. […]\nTotal mineral content per well in the above cultures was assessed by measuring the calcium levels per total DNA in each well. […] The acid-solubilzed mineral 23 was transferred to a new 96-well plate and reacted with o-cresol-phthalein-complexone (Thermal Electron Corporation, USA) to form a purple dye that was measured at 570 nm using an EL 808 Ultra Microplate Reader. […] Absolute absorbance was determined by measuring against a series of DNA standards at 350 nm by LS55 Luminescence Spectrometer (Perkin Elmer)."}}, "data": [{"substance": "pentosan polysulfate [PPS]", "values": [{"measurement": "cell viability after freeze-thawing (MTT)", "setting": "[1]; 100 μg/ml PPS, 0.25, 0.5 and 1.0 million cells", "value": "viability was enhanced"}, {"measurement": "cell viability after freeze-thawing (MTT)", "setting": "[1]; 500 μg/ml PPS, 0.25 million and 0.5 million cells", "value": "enhancement is seen"}, {"measurement": "cell viability after freeze-thawing (MTT)", "setting": "[1]; 500 μg/ml PPS, 1 million cells", "value": "did not appear to enhance viability but was not detrimental to viability"}, {"measurement": "cell viability after freeze-thawing (MTT)", "setting": "[1]; 7.5% DMSO, all PPS concentrations, FIG. 2", "value": "enhanced by the presence of PPS at all concentrations"}, {"measurement": "differentiation into osteoblasts/osteocytes", "setting": "[2]", "value": "suppressed differentiation into osteocytes"}, {"measurement": "differentiation into osteoblasts/osteocytes", "setting": "[2]; listed as polysulfated polysaccharides", "value": "suppress differentiation of progenitor cells to this cell phenotype"}, {"measurement": "calcified deposits in cultures (photomicrographs)", "setting": "[2]; osteoinductive conditions, FIG. 7B", "value": "no calcified deposits are present"}]}]}
